From publication PMC11864979, “First-in-class ultralong-target-residence-time p38α inhibitors as a mitosis-targeted therapy for colorectal cancer” (Nature Cancer, 2025)
Where two headings read alike, the source gives them in different places.

Assays:
Test in all cases: selectivity profiling in a panel of 340 wild-type kinases (Reaction Biology Europe)
Type in all cases: binding
[1] = biological target: T1, 340 wild-type kinases (Homo sapiens, UniProt P07948)
T1 construct: purchased Reaction Biology Europe

[2] = biological target: T2, 340 wild-type kinases (Homo sapiens, UniProt P27361)
T2 construct: purchased Reaction Biology Europe

[3] = biological target: T3, 340 wild-type kinases (Homo sapiens, UniProt P29322)
T3 construct: purchased Reaction Biology Europe
T3 sequence (P29322 28-1005): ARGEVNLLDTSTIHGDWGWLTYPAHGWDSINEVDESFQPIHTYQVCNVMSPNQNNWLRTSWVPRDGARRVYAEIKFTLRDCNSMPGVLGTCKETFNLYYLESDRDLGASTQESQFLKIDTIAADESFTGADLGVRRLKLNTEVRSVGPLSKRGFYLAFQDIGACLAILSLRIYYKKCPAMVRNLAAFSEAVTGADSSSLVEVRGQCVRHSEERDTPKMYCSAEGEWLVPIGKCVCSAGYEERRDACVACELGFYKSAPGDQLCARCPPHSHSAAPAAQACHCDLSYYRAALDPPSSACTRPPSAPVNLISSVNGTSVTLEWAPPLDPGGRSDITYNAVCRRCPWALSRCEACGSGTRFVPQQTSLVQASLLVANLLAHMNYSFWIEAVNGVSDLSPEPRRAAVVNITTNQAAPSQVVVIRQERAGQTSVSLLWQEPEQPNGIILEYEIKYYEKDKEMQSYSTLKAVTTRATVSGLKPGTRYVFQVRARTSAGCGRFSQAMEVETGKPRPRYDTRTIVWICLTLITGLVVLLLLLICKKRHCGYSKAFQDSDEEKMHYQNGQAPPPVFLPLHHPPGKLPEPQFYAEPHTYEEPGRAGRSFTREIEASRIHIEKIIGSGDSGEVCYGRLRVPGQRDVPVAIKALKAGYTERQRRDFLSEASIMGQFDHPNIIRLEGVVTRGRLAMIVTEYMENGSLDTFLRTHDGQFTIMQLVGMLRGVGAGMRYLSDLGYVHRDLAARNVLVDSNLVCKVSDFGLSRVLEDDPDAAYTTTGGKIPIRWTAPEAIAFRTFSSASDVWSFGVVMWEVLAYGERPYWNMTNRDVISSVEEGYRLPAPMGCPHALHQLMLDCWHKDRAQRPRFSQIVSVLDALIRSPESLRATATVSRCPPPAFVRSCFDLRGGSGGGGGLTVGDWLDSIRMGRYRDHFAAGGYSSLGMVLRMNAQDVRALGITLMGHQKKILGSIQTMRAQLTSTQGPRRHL

[4] = biological target: T4, 340 wild-type kinases (Homo sapiens, UniProt P50750)
T4 construct: purchased Reaction Biology Europe

[5] = biological target: T5, 340 wild-type kinases (Homo sapiens, UniProt Q00535)
T5 construct: purchased Reaction Biology Europe

[6] = biological target: T6, 340 wild-type kinases (Homo sapiens, UniProt Q96KB5)
T6 construct: purchased Reaction Biology Europe
T6 sequence (Q96KB5 1-322): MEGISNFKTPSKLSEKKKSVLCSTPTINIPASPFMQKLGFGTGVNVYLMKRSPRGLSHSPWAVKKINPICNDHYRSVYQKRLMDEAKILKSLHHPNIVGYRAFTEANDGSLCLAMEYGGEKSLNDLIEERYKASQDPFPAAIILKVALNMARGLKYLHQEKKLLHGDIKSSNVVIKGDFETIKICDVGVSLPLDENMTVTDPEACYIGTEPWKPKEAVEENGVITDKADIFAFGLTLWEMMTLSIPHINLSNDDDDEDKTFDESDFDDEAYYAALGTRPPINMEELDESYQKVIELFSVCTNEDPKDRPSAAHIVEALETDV

[7] = biological target: T7, 340 wild-type kinases (Homo sapiens, UniProt Q9UQB9)
T7 construct: purchased Reaction Biology Europe
T7 sequence (Q9UQB9 1-309): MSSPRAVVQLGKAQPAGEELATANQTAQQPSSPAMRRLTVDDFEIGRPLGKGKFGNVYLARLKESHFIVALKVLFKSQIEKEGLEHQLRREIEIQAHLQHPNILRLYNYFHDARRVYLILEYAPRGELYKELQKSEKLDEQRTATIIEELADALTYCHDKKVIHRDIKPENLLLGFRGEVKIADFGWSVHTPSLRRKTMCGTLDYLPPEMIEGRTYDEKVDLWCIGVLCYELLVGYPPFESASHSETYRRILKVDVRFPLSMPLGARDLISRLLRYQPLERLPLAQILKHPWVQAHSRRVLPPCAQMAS

[8] = biological target: T8, 340 wild-type kinases (Homo sapiens, UniProt Q9Y2H1)
T8 construct: purchased Reaction Biology Europe
T8 sequence (Q9Y2H1 whole entry): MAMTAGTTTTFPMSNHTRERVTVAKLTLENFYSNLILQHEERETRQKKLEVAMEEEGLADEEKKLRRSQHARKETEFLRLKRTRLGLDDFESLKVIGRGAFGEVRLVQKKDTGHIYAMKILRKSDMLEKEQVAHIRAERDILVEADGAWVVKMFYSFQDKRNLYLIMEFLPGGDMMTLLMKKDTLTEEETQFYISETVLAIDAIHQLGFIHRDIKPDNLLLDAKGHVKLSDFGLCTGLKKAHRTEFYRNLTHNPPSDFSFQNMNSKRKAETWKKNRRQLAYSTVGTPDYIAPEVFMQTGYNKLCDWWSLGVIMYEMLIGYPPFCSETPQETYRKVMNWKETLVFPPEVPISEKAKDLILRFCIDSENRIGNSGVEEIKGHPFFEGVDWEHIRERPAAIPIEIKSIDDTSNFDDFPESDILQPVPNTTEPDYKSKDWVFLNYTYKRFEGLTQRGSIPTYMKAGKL

T2 sequence (P27361 whole entry): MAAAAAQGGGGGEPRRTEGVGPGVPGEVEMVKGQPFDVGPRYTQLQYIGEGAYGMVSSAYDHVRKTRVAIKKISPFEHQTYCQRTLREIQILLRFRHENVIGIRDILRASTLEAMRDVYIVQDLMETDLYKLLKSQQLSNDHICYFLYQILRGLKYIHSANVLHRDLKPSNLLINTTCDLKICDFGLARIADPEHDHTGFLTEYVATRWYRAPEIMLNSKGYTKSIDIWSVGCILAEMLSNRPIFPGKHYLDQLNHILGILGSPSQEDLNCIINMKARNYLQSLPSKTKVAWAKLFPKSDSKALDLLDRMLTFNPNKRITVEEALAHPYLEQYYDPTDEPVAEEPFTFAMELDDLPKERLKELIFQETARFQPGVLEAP
T5 sequence (Q00535 whole entry): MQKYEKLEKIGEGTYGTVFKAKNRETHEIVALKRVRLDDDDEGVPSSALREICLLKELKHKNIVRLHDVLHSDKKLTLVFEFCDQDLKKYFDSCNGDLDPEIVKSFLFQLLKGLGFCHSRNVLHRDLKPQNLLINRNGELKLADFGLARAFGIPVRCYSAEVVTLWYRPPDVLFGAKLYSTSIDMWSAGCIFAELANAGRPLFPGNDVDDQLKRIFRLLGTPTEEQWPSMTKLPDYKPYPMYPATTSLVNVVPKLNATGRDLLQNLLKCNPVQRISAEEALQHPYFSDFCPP
T1 sequence (P07948 whole entry): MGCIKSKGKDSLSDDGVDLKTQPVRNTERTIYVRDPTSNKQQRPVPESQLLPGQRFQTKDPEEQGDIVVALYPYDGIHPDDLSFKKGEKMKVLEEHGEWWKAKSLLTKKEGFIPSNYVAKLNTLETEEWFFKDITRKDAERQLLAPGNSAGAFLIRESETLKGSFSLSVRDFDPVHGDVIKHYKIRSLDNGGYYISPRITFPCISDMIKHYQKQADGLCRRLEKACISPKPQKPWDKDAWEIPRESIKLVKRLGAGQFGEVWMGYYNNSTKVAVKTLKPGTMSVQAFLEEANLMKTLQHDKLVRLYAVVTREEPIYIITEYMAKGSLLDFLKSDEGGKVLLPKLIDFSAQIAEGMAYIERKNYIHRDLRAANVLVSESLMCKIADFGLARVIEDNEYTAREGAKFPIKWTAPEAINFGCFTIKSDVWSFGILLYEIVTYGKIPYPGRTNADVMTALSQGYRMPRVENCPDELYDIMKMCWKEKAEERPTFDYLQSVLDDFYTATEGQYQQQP
T4 sequence (P50750 whole entry): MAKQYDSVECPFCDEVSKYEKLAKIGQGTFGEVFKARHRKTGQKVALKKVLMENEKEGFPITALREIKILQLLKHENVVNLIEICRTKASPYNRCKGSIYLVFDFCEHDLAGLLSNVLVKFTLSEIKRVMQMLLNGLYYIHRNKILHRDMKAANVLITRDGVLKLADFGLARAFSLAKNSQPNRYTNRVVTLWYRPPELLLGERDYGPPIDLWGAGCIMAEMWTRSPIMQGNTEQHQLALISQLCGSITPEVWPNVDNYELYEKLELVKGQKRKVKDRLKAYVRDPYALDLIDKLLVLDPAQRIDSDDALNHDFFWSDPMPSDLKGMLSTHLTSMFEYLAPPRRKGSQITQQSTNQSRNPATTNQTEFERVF

CNC(=O)c1ccc2c(c1)C(=O)c1ccc(Nc3ccc(F)c(NC(=O)C4CC4)c3)cc1CC2 [Compound 2015]
remaining activity at 0.2 µM ([1]; 0.2 µM 2015, read-out: LYN residual activity): 109% | remaining activity at 1 µM ([1]; 1 µM 2015, read-out: LYN residual activity): 82.5% | remaining activity at 0.2 µM ([1]; LYN, 0.2 µM, read-out: residual activity): 109% | remaining activity at 1 µM ([1]; LYN, 1 µM, read-out: residual activity): 82.5% | remaining activity at 1 µM ([2]; 1 µM 2015, read-out: ERK1 residual activity): 104% | remaining activity at 0.2 µM ([2]; ERK1, 0.2 µM, read-out: residual activity): 108% | remaining activity at 1 µM ([2]; ERK1, 1 µM, read-out: residual activity): 104% | remaining activity at 0.2 µM ([3]; 0.2 µM 2015, read-out: EPHA8 residual activity): 98.5% | remaining activity at 1 µM ([3]; 1 µM 2015, read-out: EPHA8 residual activity): 95.3% | remaining activity at 0.2 µM ([3]; EPHA8, 0.2 µM, read-out: residual activity): 98.5% | remaining activity at 1 µM ([3]; EPHA8, 1 µM, read-out: residual activity): 95.3% | remaining activity at 0.2 µM ([4]; 0.2 µM 2015, read-out: CDK9/CycK residual activity): 94.2% | remaining activity at 0.2 µM ([4]; 0.2 µM 2015, read-out: CDK9/CycT1 residual activity): 107% | remaining activity at 1 µM ([4]; 1 µM 2015, read-out: CDK9/CycK residual activity): 95.1% | remaining activity at 1 µM ([4]; 1 µM 2015, read-out: CDK9/CycT1 residual activity): 94% | remaining activity at 0.2 µM ([4]; CDK9/CycK, 0.2 µM, read-out: residual activity): 94.2% | remaining activity at 1 µM ([4]; CDK9/CycK, 1 µM, read-out: residual activity): 95.2% | remaining activity at 0.2 µM ([4]; CDK9/CycT1, 0.2 µM, read-out: residual activity): 107% | remaining activity at 1 µM ([4]; CDK9/CycT1, 1 µM, read-out: residual activity): 94% | remaining activity at 0.2 µM ([5]; 0.2 µM 2015, read-out: CDK5/p25NCK residual activity): 110% | remaining activity at 0.2 µM ([5]; 0.2 µM 2015, read-out: CDK5/p35NCK residual activity): 114% | remaining activity at 1 µM ([5]; 1 µM 2015, read-out: CDK5/p25NCK residual activity): 100% | remaining activity at 1 µM ([5]; 1 µM 2015, read-out: CDK5/p35NCK residual activity): 103% | remaining activity at 0.2 µM ([5]; CDK5/p25NCK, 0.2 µM, read-out: residual activity): 110% | remaining activity at 1 µM ([5]; CDK5/p25NCK, 1 µM, read-out: residual activity): 100% | remaining activity at 0.2 µM ([5]; CDK5/p35NCK, 0.2 µM, read-out: residual activity): 114% | remaining activity at 1 µM ([5]; CDK5/p35NCK, 1 µM, read-out: residual activity): 103% | remaining activity at 0.2 µM ([6]; 0.2 µM 2015, read-out: PBK residual activity): 96.5% | remaining activity at 1 µM ([6]; 1 µM 2015, read-out: PBK residual activity): 79.7% | remaining activity at 0.2 µM ([6]; PBK, 0.2 µM, read-out: residual activity): 96.5% | remaining activity at 1 µM ([6]; PBK, 1 µM, read-out: residual activity): 79.7% | remaining activity at 0.2 µM ([7]; 0.2 µM 2015, read-out: AuroraC residual activity): 88.5% | remaining activity at 1 µM ([7]; 1 µM 2015, read-out: AuroraC residual activity): 96.3% | remaining activity at 0.2 µM ([7]; AuroraC, 0.2 µM, read-out: residual activity): 88.5% | remaining activity at 1 µM ([7]; AuroraC, 1 µM, read-out: residual activity): 96.3% | remaining activity at 0.2 µM ([8]; 0.2 µM 2015, read-out: NDR2 residual activity): 97.8% | remaining activity at 1 µM ([8]; 1 µM 2015, read-out: NDR2 residual activity): 96.6% | remaining activity at 0.2 µM ([8]; NDR2, 0.2 µM, read-out: residual activity): 97.8% | remaining activity at 1 µM ([8]; NDR2, 1 µM, read-out: residual activity): 96.7%
